{
  "source": "patent US20230001010A1",
  "about": "“COMPOSITIONS AND METHODS FOR TREATING AUTOIMMUNE DISORDERS” (The Regents of the University of Michigan, priority 2019, published 2023)",
  "key": {"[1]": {"assay": "Antigen / drug loading efficiency in HDL nanodiscs (HPLC/MS)", "type": "physicochemical", "settings": "for drug encapsulate efficiencies: drug in HDL nanodiscs, HPLC-MS", "method": "(§1) HDL nanodisc was prepared as previously described. Briefly, DMPC was dissolved in chloroform, which was evaporated with nitrogen flow and under vacuum for at least 1 h. The resulting lipid film was hydrated in 10 mM sodium phosphate buffer and sonicated in a bath sonicator for 10 min. ApoA1 mimetic peptide 22A dissolved in endotoxin free water was added to the above mixture (22A:DMPC=1:2 weight ratio) to obtain nanodiscs. To load MOG antigen peptide in nanodiscs, each antigen peptide was reacted with 4-(4-maleimidophenyl)-butyric DOPE for 3 h in dimethylformamide (DMF), which was removed by freeze-drying after dilution 10× with endotoxin-free water. The lipid-peptide conjugates were dissolved in DMSO and added to pre-formed sHDL and incubated for 30 min at room temperature. Unreacted MOG peptides were removed by using Zeba Spin Desalting columns (Pierce) following the manufacturer's instructions. The conjugation efficiency of MOG peptide was determined by LC-MS and gel permeation chromatography (GPC). EAE was induced in female C57BL/6 mice by inoculation with 100 μg of MOG in complete Freund's adjuvant on day 0 following the administration of pertussis toxin. Mice were then injected subcutaneously at tail base for therapeutic study with sHDL-MOG, MOG or PBS on indicated days. Mice were weighed and scored daily based on the following guideline: 0, no sign of disease; 1, loss of tone in the tail; 2, hind limb paresis; 3, hind limb paralysis; 4, tetraplegia; and 5, moribund.\nTo produce HDL nanodiscs carrying immunomodulatory drugs, 22A, and DMPC were dissolved in acetic acid and freeze-dried overnight as shown above. Drugs (FTY720, ITE, TSA, or SAHA) were dissolved in chloroform and added to lyophilized powder, followed by drying overnight in vacuum oven. Dried samples were rehydrated by 10 mM phosphate buffer. After three heat-cooling cycles, HDL-loaded with drugs were performed. The concentration of each drug was measured by HPLC-MS as shown for FTY720, ITE, TSA, or SAHA (FIGS. 14-17, respectively). Free drugs were used to generate standard curves. […] Samples were also analyzed by dynamic light scattering (DLS) for the particle sizes. […] We also analyzed HDL-FTY720 samples using gel permeation chromatography (GPC) (FIG. 19).\nWe synthesized HDL nanodiscs loaded with other CD4+ T cell epitopes for validation of our approach. We have synthesized phospholipids conjugated to either Ea chain 52-68 peptide (EA, ASFEAQGALANIAVDKA (SEQ ID NO: 831)), ovalbumin-II 323-339 peptide (OVA-II, ISQAVHAAHAEINEAGR (SEQ ID NO: 832)), and type-II collagen 250-270 peptide (CIA, […] (SEQ ID NO: 833)), each modified with CSS-peptide at N-terminus. Antigen-lipid conjugates were loaded into HDL nanodiscs as described above and analyzed by HPLC/MS and DLS. EA, OVA-II, and CIA peptides were conjugated to MPB-phospholipids with ˜95% conjugation efficiency (FIGS. 22-25). Antigen-lipid conjugates were efficiently loaded into HDL nanodiscs with ˜90%, ˜84%, and ˜78% loading efficiency for EA, OVA-II, and CIA peptides, respectively (FIGS. 22-25)."}, "[2]": {"system": "experimental autoimmune encephalomyelitis (EAE)", "assay": "Experimental autoimmune encephalomyelitis (EAE) mouse model, pathological score", "type": "in vivo, C57BL/6 mice", "settings": "for time until mice were moribund: treated on days 2, 9 and 16; for average pathological score: treated s.c. on days 2, 9 and 16", "method": "as §1\nEAE-induced mice were administered s.c. with PBS or HDL-MOG on days 15, 22, and 29, and a subset of animals also received i.p. administration of […] to deplete Tregs at the specified time points (FIG. 13).\nWe examined the therapeutic potential of HDL-FTY720 in the EAE model. EAE was initiated as described above. Briefly, EAE was induced in mice as indicated above. Mice received i.p. administration of PBS or HDL-FTY720 (1 mg/kg) on days 14, 21, and 28. Mice were scored daily and assigned EAE scores as indicated above."}, "CNS tissues of EAE mice": {"system": "CNS tissues of EAE mice", "assay": "Cytokine release from CNS cells of treated EAE mice after ex vivo MOG35-55 re-stimulation (ELISA)", "type": "in vivo, C57BL/6 mice", "settings": "day 40, pulsed ex vivo with MOG35-55", "method": "FIG. 6A is a schematic diagram depicting the treatment regimen. FIG. 6B are graphs showing the amount of GM-CSF, IFN-gamma, and IL-17 released after ex vivo treatment of CNS tissues with MOG35-55 peptide.\nBriefly, female C57BL/6 mice were injected subcutaneously with an emulsion of MOG35-55 ([…], SEQ ID NO: 830) in complete Freund's adjuvant (CFA) and intraperitoneal (i.p.) injection of pertussis toxin (120 ng/dose on days 0 and 2). EAE-induced mice were treated with PBS, free MOG, HDL-MOG, or HDL-M30 (irrelevant CD4+ T cell epitope from B16F10 tumor cells) and CNS tissues were harvested on day 40 (FIG. 10A). CNS tissues were harvested from mice after intracardiac perfusion with PBS. Spinal cord was harvested, homogenized in 10 ml of PBS containing 1% BSA, and pelleted at 800×g for 5 min. Cell pellets were resuspended in 3 ml of collagenase A (1 mg/ml) and DNase I (1 mg/ml) in HBSS and incubated in a 37° C. water bath for 30 min. Samples were pelleted at 800×g, resuspended in 27% Percoll, and centrifuged for 10 min at 800×g. The myelin/debris layer and Percoll were removed, and the cell pellet was stained and analyzed by flow cytometric analysis. Splenic immune cells were isolated by homogenization through a 70 µm strainer (BD Falcon). RBCs were lysed using ACK lysis buffer. Cells were washed with 25 ml of PBS, centrifuged at 800×g, resuspended in FACS buffer, and stained with antibodies. For the cellular surface staining, cells were resuspended in PBS with a fixable viability dye (BV510) for 10 min. Then, cells were washed two times with FACs buffer and resuspended in Fc Block (anti-CD16/32; 100 ng/ml). For ex vivo re-stimulation, cells were incubated for 96 hr with MOG35-55 before brefeldin A (BFA) (5 μg/ml) was added for 4 h. For intracellular staining, cells were stained for surface markers, fixed/permeabilized, and stained with antibody for 30 min on the ice. After 2× washing, cells were resuspended in FACS buffer and analyzed by flow cytometric analysis. Data were collected with a Cytek Aurora flow cytometer using FCS express software (V7). […]"}, "[3]": {"system": "CD4+ T cells from CNS cells", "assay": "Intracellular cytokine staining of CD4+ T cells from CNS", "type": "in vivo, C57BL/6 mice", "settings": "day 40", "method": "(§2) Briefly, female C57BL/6 mice were injected subcutaneously with an emulsion of MOG35-55 ([…], SEQ ID NO: 830) in complete Freund's adjuvant (CFA) and intraperitoneal (i.p.) injection of pertussis toxin (120 ng/dose on days 0 and 2). EAE-induced mice were treated with PBS, free MOG, HDL-MOG, or HDL-M30 (irrelevant CD4+ T cell epitope from B16F10 tumor cells) and CNS tissues were harvested on day 40 (FIG. 10A). CNS tissues were harvested from mice after intracardiac perfusion with PBS. Spinal cord was harvested, homogenized in 10 ml of PBS containing 1% BSA, and pelleted at 800×g for 5 min. Cell pellets were resuspended in 3 ml of collagenase A (1 mg/ml) and DNase I (1 mg/ml) in HBSS and incubated in a 37° C. water bath for 30 min. Samples were pelleted at 800×g, resuspended in 27% Percoll, and centrifuged for 10 min at 800×g. The myelin/debris layer and Percoll were removed, and the cell pellet was stained and analyzed by flow cytometric analysis. Splenic immune cells were isolated by homogenization through a 70 µm strainer (BD Falcon). RBCs were lysed using ACK lysis buffer. Cells were washed with 25 ml of PBS, centrifuged at 800×g, resuspended in FACS buffer, and stained with antibodies. For the cellular surface staining, cells were resuspended in PBS with a fixable viability dye (BV510) for 10 min. Then, cells were washed two times with FACs buffer and resuspended in Fc Block (anti-CD16/32; 100 ng/ml). For ex vivo re-stimulation, cells were incubated for 96 hr with MOG35-55 before brefeldin A (BFA) (5 μg/ml) was added for 4 h. For intracellular staining, cells were stained for surface markers, fixed/permeabilized, and stained with antibody for 30 min on the ice. After 2× washing, cells were resuspended in FACS buffer and analyzed by flow cytometric analysis. Data were collected with a Cytek Aurora flow cytometer using FCS express software (V7).\n(§3) On day 40, CNS tissues were isolated and pulsed ex vivo with MOG35-55 peptide, followed by measurement of IL-17, IFN-gamma, and GM-CSF by ELISA (FIG. 10B). […]"}, "[4]": {"system": "CD4+ T cells from splenocytes", "assay": "Intracellular cytokine staining of CD4+ T cells from splenocytes", "type": "in vivo, C57BL/6 mice", "settings": "spleen; day 40", "method": "as §2, §3"}, "Tregs in the CNS": {"system": "Tregs in the CNS", "assay": "Frequency of Tregs in CNS of EAE mice (flow cytometry)", "type": "in vivo", "settings": "EAE-induced mice; day 40", "method": "Cells from CNS were stained by anti-CD25, anti-CD4, and MOG-tetramer, followed by fixation/permeabilization and intracellular staining with anti-Foxp3. Stained cells were then analyzed by flow cytometry. […] On the other hand, mice treated with free MOG peptide or HDL-M30 had basal level of Tregs as in PBS-treated EAE mice (FIGS. 12A-12B)."}, "[5]": {"system": "bone marrow-derived dendritic cells (BMDCs)", "assay": "Cellular uptake by BMDCs (confocal microscopy)", "type": "cell-based, C57BL/6 mice", "settings": "FITC-labelled antigen", "method": "To obtain bone marrow-derived dendritic cells (BMDCs), bone marrow was flushed from femurs and tibia bone of 5 to 6 weeks old C57BL/6 mice. Bone marrow cells were plated at 1×10^6 cells per dish in RPMI 1640 supplemented with 10% FBS, 55 μM β-mercaptoethanol, 5 ng/ml of GM-CSF, and 100 U/ml penicillin (BMDC media). On day three and five, one half of the culture media was replaced with fresh media. After 8 days, BMDCs were harvested and plated at 1×10^6 cells per well in 12-well plates.\n(§4) Internalization of fluorescent HDL-MOG by BMDCs or microglia were visualized using confocal microscopy. BMDCs or microglia were seeded at 1×10^6 cells on 35 mm Petri dishes (MatTek) and incubated with the mixture of free CSS-MOG-K(FITC), or sHDL-CSS-MOG-K(FITC). Cells were then washed three times with PBS, fixed with 4% paraformaldehyde, washed, and permeabilized with 0.1% Triton-X solution. Actin filaments were stained with AlexaFluor 647-Phalloidin, MHC-II was stained with MHC-II-Texas red, and the nuclei were stained with DAPI. The samples were imaged using a 63× oil-immersion lens on a Nikon A-I spectral confocal microscope."}, "microglia": {"system": "microglia", "assay": "Cellular uptake by microglia (confocal microscopy)", "type": "cell-based, C57BL6/J mice", "settings": "FITC-labelled antigen", "method": "Mixed glial cell cultures were harvested from the cerebral cortex of newborn (P0-2) C57BL6/J mice as described previously. Cortices and brain stem were separated, and the blood vessels and meninges were carefully isolated. Then, the tissues were digested by enzymatic dissociation (0.05% trypsin-EDTA and […] DNase I), washed two times with 1% BSA in PBS. Cells were resuspended in DMEM (10% FBS, 1% penicillin/streptomycin, 0.5 mM 2-mercaptoethanol). Mixed glial cells were cultured in poly-D-lysine-coated flasks and grown at 37° C. and 5% CO2. After 10 days, microglia cells were isolated from the underlying astrocytic layer by shaking of the flask. The cell culture contained more than 95% microglial (CD11 b+, CD45+) cells as analyzed by flow cytometry.\nas §4"}, "[6]": {"settings": "harsh EAE induced with MOG1-125"}},
  "data": [
    {"compound": "O=C(CCCCCCC(=O)Nc1ccccc1)NO", "note": "[SAHA, Suberoylanilide hydroxamic acid]", "values": [
      {"measurement": "drug encapsulate efficiencies", "setting": "[1]", "result": "~100", "unit": "%"}
    ]},
    {"compound": "MEVGWYRSPFSRVVHLYRNGK [free MOG peptide]", "values": [
      {"measurement": "loading efficiency in HDL", "setting": "[1]; antigen / antigen-lipid conjugate loaded into HDL nanodiscs, HPLC/MS", "result": "~90", "unit": "%"},
      {"measurement": "time until mice were moribund", "setting": "[2]; [6]", "result": "≤ 20", "unit": "days"},
      {"measurement": "average pathological score", "setting": "[2]; [6]", "result": 5},
      {"measurement": "time until mice were moribund", "setting": "[2]; mild EAE induced with MOG35-55", "result": "≤ 20", "unit": "days"},
      {"measurement": "average pathological score", "setting": "[2]; mild EAE induced with MOG35-55", "result": 5},
      {"measurement": "level of GM-CSF in CNS", "setting": "CNS tissues of EAE mice", "result": "high levels"},
      {"measurement": "level of IFN-gamma in CNS", "setting": "CNS tissues of EAE mice", "result": "high levels"},
      {"measurement": "level of IL-17 in CNS", "setting": "CNS tissues of EAE mice", "result": "high levels"},
      {"measurement": "frequency of CD4+ T cells producing GM-CSF", "setting": "[3]", "result": "high frequencies"},
      {"measurement": "frequency of CD4+ T cells producing IFN-gamma", "setting": "[3]", "result": "high frequencies"},
      {"measurement": "frequency of CD4+ T cells producing IL-17", "setting": "[3]", "result": "high frequencies"},
      {"measurement": "frequency of CD4+ T cells producing GM-CSF", "setting": "[4]", "result": "high frequencies"},
      {"measurement": "frequency of CD4+ T cells producing IFN-gamma", "setting": "[4]", "result": "high frequencies"},
      {"measurement": "frequency of CD4+ T cells producing IL-17", "setting": "[4]", "result": "high frequencies"},
      {"measurement": "frequency of CD25+Foxp3+ Tregs in the CNS", "setting": "Tregs in the CNS", "result": "basal level"}
    ]},
    {"compound": "CSS-MOG-K(FITC) [MOG-FITC]", "values": [
      {"measurement": "internalization by BMDCs", "setting": "[5]", "result": "minimal signal"},
      {"measurement": "internalization by microglia", "setting": "microglia", "result": "minimal signal"}
    ]},
    {"compound": "COC(=O)c1csc(C(=O)c2c[nH]c3ccccc23)n1", "note": "[ITE, 2-(1′H-indole-3′-carbonyl)-thiazole-4-carboxylic acid methyl ester]", "values": [
      {"measurement": "drug encapsulate efficiencies", "setting": "[1]", "result": "~95", "unit": "%"}
    ]},
    {"compound": "CC(/C=C/C(=O)NO)=C\\[C@@H](C)C(=O)c1ccc(N(C)C)cc1", "note": "[TSA, Trichostatin A]", "values": [
      {"measurement": "drug encapsulate efficiencies", "setting": "[1]", "result": "~80", "unit": "%"}
    ]}
  ]
}
